Consider 91 molecules from the Bradley open melting point set (2014).

In the case of `CCCCCCCCCCCCCCCCC(=O)O` [heptadecanoic acid], the melting point (commonly the temperature, or range, at which the solid turns liquid) was found to be 61 °C.

Molecule `COc1ccc(-c2oc3c(OC)c(OC)ccc3c(=O)c2O)cc1` [3-hydroxy-4',7,8-trimethoxyflavone] gave a melting point of 198 °C.

Consider `CCC(C)S` (stereo unspecified) [2-butanethiol], for which the melting point is -140 °C.

`CC(=O)c1cc(C)cc(C)c1` [3',5'-dimethylacetophenone] registered a melting point of 20 °C.

`Cc1cc(O)ccc1Cl` [4-chloro-3-methylphenol] came in with a melting point of 67 °C.

In the case of `CC(C)(C)[Si](C)(C)Oc1cccc(B(O)O)c1` [3-(tert-butyldimethylsiloxy)benzeneboronic acid], the melting point was 89 °C.

For the molecule `O=Cc1cccnc1Cl` [2-chloropyridine-3-carboxaldehyde], the melting point is 52 °C.

`Cc1ccc(N)c(N)c1` [4-Methylbenzene-1,2-diamine]: the melting point amounted to 89.5 °C.

Regarding `CCCCCC(=O)OC(=O)CCCCC` [hexanoic anhydride], the melting point is -40 °C.

Regarding `O=C(O)COCCNC(=O)C12CC3CC(CC(C3)C1)C2`, the melting point was 122 °C.

For the molecule `COC(=O)c1ccc(C)cc1` [methyl p-toluate], the melting point was 34 °C.

`NNC(=O)c1ccco1` [2-furohydrazide] came in with a melting point of 80 °C.

`COc1cc(C=O)ccc1O` [4-Hydroxy-3-methoxybenzaldehyde]: the melting point worked out at 82 °C.

The molecule `Cc1cc(Cl)c(C)cc1Cl` [2,5-dichloro-p-xylene] yielded a melting point of 69 °C.

On to `CCCCCCCCCCCCCl` [1-chlorododecane], for which the melting point is -9 °C.

In turn, `N#CCc1ccccc1CC#N` [1,2-phenylenediacetonitrile] registered a melting point of 59 °C.

For the molecule `COc1ccccc1N` [o-anisidine], the melting point is 6 °C.

`Nc1cccc2ccccc12` [1-aminonaphthalene] registered a melting point of 49 °C.

As to `Cc1cc(Cl)ccc1B(O)O` [4-chloro-2-methylbenzeneboronic acid], the melting point was found to be 194 °C.

`CCCOC(=O)c1ccc(O)cc1` [propyl p-hydroxybenzoate] displayed a melting point of 96 °C.

For the molecule `ClC1CCCC1` [chlorocyclopentane], the melting point was -94 °C.

As for `CCc1ccc2ccccc2c1` [2-ethylnaphthalene], the melting point was -7.35 °C.

Molecule `Cc1ccn(C(N)=O)n1` [1-carbamoyl-3-methylpyrazole] registered a melting point of 148 °C.

Regarding `COc1ccc(C=C2N=C(c3ccccc3)OC2=O)cc1` [4-(4-methoxybenzylidene)-2-phenyl-1,3-oxazol-5(4H)-one], the melting point is 152 °C.

The molecule `Cc1c(C(=O)O)cc([N+](=O)[O-])cc1[N+](=O)[O-]` [2-Methyl-3,5-dinitrobenzoic acid] gave a melting point of 206 °C.

On to `N#Cc1ccc(O)cc1` [4-hydroxybenzonitrile], for which the melting point worked out at 112 °C.

`O=C1OC(c2ccccc2)=N/C1=C/c1ccc(-c2cccc([N+](=O)[O-])c2)o1`: the melting point is 145 °C.

In turn, `Nc1ccc(S(=O)(=O)Nc2ccccn2)cc1` [sulfapyridine] gave a melting point of 192 °C.

`CCCCCCCCCCCCCCCCC1CO1` (stereo unspecified) [2-Hexadecyloxirane] had a melting point of 26 °C.

`Cc1ccc(I)cc1N` [5-iodo-2-methylaniline] yielded a melting point of 48 °C.

`OCc1ccccc1I` [o-iodobenzyl_alcohol] came in with a melting point of 92 °C.

The molecule `CCCOC1CCC2C3CCC4=CC(=O)CCC4(C)C3CCC12C` (stereo unspecified) [17-propoxyandrost-4-en-3-one] came in with a melting point of 118 °C.

Consider `CC1(C)C(=O)OC2=C(CC3C4CC=C5CC(O)CCC5(C)C4CCC23C)C1c1ccccc1` (stereo unspecified), for which the melting point is 233 °C.

In the case of `CCCOC(C)=O` [Propyl Acetate], the melting point was -93 °C.

For the molecule `O=c1cc(-c2ccc(O)c(O)c2)oc2ccccc12` [3',4'-dihydroxyflavone], the melting point amounted to 251 °C.

`CC(C)[C@H](N)C(=O)O` [L-Valine] gave a melting point of 308 °C.

`CC(C)(C)OC(=O)N[C@H](Cc1cccc(F)c1)C(=O)O` [N-boc-3-fluoro-d-phenylalanine] came in with a melting point of 77 °C.

On to `O=C(O)c1cc(C(=O)O)c(C(=O)O)cc1C(=O)O` [pyromellitic acid], for which the melting point amounted to 283 °C.

In the case of `C/C=C/CC` [(2E)-Pent-2-ene], the melting point is -140 °C.

In turn, `CC(=O)N1CCc2cc(Br)ccc21` [1-acetyl-5-bromoindoline] showed a melting point of 120 °C.

As to `N[C@@H](Cc1ccc(O)c(O)c1)C(=O)O` [Levodopa], the melting point was 277 °C.

Take `CCCCCCOC(C)=O` [N-hexyl acetate]: the melting point was -80 °C.

In the case of `BrCCCCCBr` [1,5-dibromopentane], the melting point was -40 °C.

`c1ccc(-c2ccnc3c2ccc2c(-c4ccccc4)ccnc23)cc1` [bathophenanthroline] came in with a melting point of 220 °C.

In turn, `CCOC(=O)c1ccccc1O` [ethyl salicylate] registered a melting point of 1 °C.

With `C=CC(=O)OCC` [ethyl_acrylate], the melting point is -71 °C.

For the molecule `C1[C@H]3C[C@@H]2C[C@@H](C[C@H]1C2)C3` [Adamantane], the melting point stood at 269 °C.

With `CC1(C)CC(=O)c2c(cc3c(c2[Si](C)(C)C)-c2ccccc2OC3)C1`, the melting point came to 143 °C.

`CC(CCc1oc2ccccc2c1-c1ccc(C)o1)=NO` had a melting point of 105 °C.

`C[C@H](O)[C@@H](C)O` [(2R,3S)-Butane-2,3-diol] registered a melting point of 33 °C.

Molecule `ClC1=C(Cl)C2(Cl)C3C4CC(C5OC45)C3C1(Cl)C2(Cl)Cl` (stereo unspecified) [Dieldrin] showed a melting point of 175 °C.

With `c1ccc2c(c1)Cc1cc3ccccc3cc1-2` [2,3-Benzofluorene Benzo[b]fluorene], the melting point came out at 210 °C.

In the case of `O=C(O)c1cc(O)ccc1O` [gentisic acid], the melting point was 205 °C.

`ClC(Cl)(Cl)C(Cl)(Cl)Cl` [hexachloroethane]: the melting point was found to be 192 °C.

Consider `O=[N+]([O-])c1ccc(CBr)cc1` [4-nitrobenzyl bromide], for which the melting point was 99 °C.

For `O=C(CCC(=O)Oc1ccccc1)Oc1ccccc1` [diphenyl succinate], the melting point is 88 °C.

Regarding `OB(O)c1cc(Cl)c(F)cc1F` [5-chloro-2,4-difluorobenzeneboronic acid], the melting point turned out to be 220 °C.

`N#CNC(=N)N` [dicyandiamide] displayed a melting point of 210 °C.

For the molecule `CCC1(C2=CCCCCC2)C(=O)NC(=O)NC1=O` [heptabarbital], the melting point was 175 °C.

For the molecule `c1ccc(N=Nc2ccc(Nc3ccccc3)cc2)cc1` [4-phenylazodiphenylamine], the melting point turned out to be 83 °C.

Consider `CC1(C)C(O)[C@H](Cl)[C@@H]2CC[C@H]1O2` (stereo partly specified), for which the melting point is 72 °C.

In turn, `COc1cc2nnc(/C=C/C(C)=O)c(-c3ccc(C)o3)c2cc1OC` had a melting point of 170 °C.

`CC(=O)Oc1ccccc1C(=O)O` [2-Acetoxybenzoic acid] had a melting point of 139 °C.

The molecule `CC1(C)[C@@H]2CC[C@@]1(C)C(=O)C2=O` [(1R)-camphorquinone] showed a melting point of 200 °C.

Consider `O=Cc1cccc(C=O)c1` [Isophthalaldehyde], for which the melting point was 88.8 °C.

Take `COc1cccc(OC)c1C` [2,6-dimethoxytoluene]: the melting point stood at 40 °C.

For `CC/C(=C(/CC)c1ccc(O)cc1)c1ccc(O)cc1` [diethylstilbestrol], the melting point came to 178 °C.

As for `O=C1CCCCCCC1` [cyclooctanone], the melting point came to 41 °C.

`CC12CCC(C(=O)C1=O)C2(C)C` (stereo unspecified) [camphorquinone] came in with a melting point of 200 °C.

Turning to `CCCCCCl` [1-chloropentane], the melting point was -99 °C.

In turn, `CCOc1ccc(C(C)=O)cc1` [p-ethoxyacetophenone] yielded a melting point of 39 °C.

For the molecule `CCCCNCC(O)c1ccc(O)cc1` (stereo unspecified) [bamethan], the melting point came to 124 °C.

For `O=C(O)c1ccc(O)c([N+](=O)[O-])c1` [4-hydroxy-3-nitrobenzoic acid], the melting point is 183 °C.

Regarding `O=C(CCCl)c1ccc(F)cc1` [3-chloro-4'-fluoropropiophenone], the melting point stood at 48 °C.

`OC1CCCCCCC1` [cyclooctanol] gave a melting point of 15 °C.

Turning to `Clc1cc(Cl)c(Cl)cc1Cl` [1,2,4,5-Tetrachlorobenzene], the melting point was 139 °C.

Molecule `CCCCC(C)CC(O)C=CC1C(O)CC(=O)C1CCCCC=CC(=O)O` (stereo unspecified) yielded a melting point of 97 °C.

On to `COC(=O)CC(=O)OC` [dimethyl malonate], for which the melting point was -62 °C.

Molecule `CCCCCCCCCCCO` [Undecan-1-ol] yielded a melting point of 11 °C.

As for `FC(F)(Cl)Cl` [Dichloro(difluoro)methane], the melting point is -158 °C.

For `CCCCC#N` [Valeronitrile], the melting point was -96 °C.

With `O=C(CS(=O)C(c1ccccc1)c1ccccc1)NO` (stereo unspecified) [adrafinil], the melting point came to 159 °C.

`CCCC[C@@H](NC(=O)OCc1ccccc1)C(=O)O` [N-benzyloxycarbonyl-D-norleucine]: the melting point turned out to be 57 °C.

`CSCC[C@H](NC(C)=O)C(=O)O` [N-Acetylmethionine] yielded a melting point of 106 °C.

On to `CC(C)NCC(O)c1cc(O)cc(O)c1` (stereo unspecified) [metaproterenol], for which the melting point stood at 100 °C.

Consider `CC(=O)OC1CCC2(C)C(CCC3C2CCC2(C)C3CCC2(C)CCc2ccccc2)C1` (stereo unspecified) [17-methyl-21-phenylpregnan-3-yl acetate], for which the melting point was 135 °C.

`CC[C@H]1OC(=O)[C@H](C)[C@@H](O[C@@H]2C[C@](C)(OC)[C@H](O)[C@@H](C)O2)[C@H](C)[C@@H](O[C@@H]2O[C@H](C)C[C@H](N(C)C)[C@H]2O)[C@](C)(OC)C[C@@H](C)C(=O)[C@H](C)[C@@H](O)[C@]1(C)O` [Clarithromycin] came in with a melting point of 218 °C.

`CC(=O)CC(C)(C)O` [4-hydroxy-4-methyl-2-pentanone]: the melting point is -47 °C.

As to `Clc1cc(-c2ccccn2)nc(-c2ccccn2)c1` [4'-chloro-2,2':6',2''-terpyridine], the melting point worked out at 150 °C.

In the case of `COCCOC` [1,2-Dimethoxyethane], the melting point was -58 °C.

`ClC1C(Cl)C(Cl)C(Cl)C(Cl)C1Cl` (stereo unspecified) [1,2,3,4,5,6-Hexachlorocyclohexane] yielded a melting point of 113 °C.
